Results reported in patent publication US20230332145A1, “BIFUNCTIONAL MOLECULES AND METHODS OF USING THEREOF” (Flagship Pioneering, Inc., priority 2020, published 2023).
In the oligonucleotide strings, read from the 5' end, every base follows the letter of its sugar. An asterisk marks phosphorothioate; unmarked linkages are phosphodiester. Other units and linkages are bracketed, terminal groups are in braces. A string of capitals states the bases alone. e = 2'-O-(2-methoxyethyl) (MOE); [5mC] = 5-methylcytosine

Legend:
[1] = tested on: MYC expression; assay: MYC expression by qPCR after RNAiMax transfection of HEK293T cells; assay type: cell-based, human; settings: for MYC expression change, linker comparison: 400 to 3.125 nM
Experimental: HEK293T cells were seeded at 30k cells/well in a 96 well tissue culture vessel day before transfection. […] Transfected cells were allowed to recover and were harvested after 24 hours. MYC expression was measured by RNA level using qPCR analysis after transfection with each of the bi-functional molecule or control molecules. Cell samples for qPCR analysis were prepared by Cells to Ct 1 Step TaqMan Kit (ThermoFisher A25602) following manufractuer’s recommendations. qPCR assays were performed using Cells to Ct qPCR master mix, gene specific TaqMan probe (ThermoFisher), and Cells to Ct cell lysate. Relative levels of MYC were normalized to β-actin as a stably expressed control. MYC TaqMan probe: ThermoFisher Assay ID Hs00153408_ml; ACTB TaqMan probe: ThermoFisher Assay ID Hs01060665_g1. During qPCR amplification, FAM fluorescence intensity for each target gene was recorded by QuantStudio7 qPCR instrument (ThermoFisher Scientific) as a measurement of the amount of double-stranded DNA produced during each PCR cycle. Ct values for each gene in each sample were computed by the instrument software based on the amplification curves, and used to determine relative expression values for target and β-actin in each sample.

[2] = tested on: MYC protein; assay: MYC protein, FRET based ELISA (Human c-Myc Cell-based kit) in HEK293T cells; settings: 200 nM, 24 hours
Experimental: PVT1 ASO1-JQ1 and control molecules were transfected to HEK293T cells at 400, 200, 100, and 50 nM with RNAiMax. PVT1 ASO1-JQ1:RNAiMax ratios in transfection are: 400 nM: 1.2 ul, 200 nM:0.6 ul, 100 nM:0.3 ul, 50 nM:0.15 ul. Cells were harvested 24 hours after transfection and MYC expression changes was monitored by qPCR and by enzyme-linked immunosorbent assay (ELISA). […] For a fluorescence resonance energy transfer (FRET) based ELISA assays, cell samples were prepared by Human c-Myc Cell-based kit (Cisbio # 63ADK053PEH) following manufractuer’s recommendation. MYC protein is detected in a sandwich assay using two specific antibodies, labeled with Europium Cryptate (donor) and with d2 (acceptor). FRET signal was read with Varioskan LUX Multimode Microplate Reader (ThermoFisher) with a 6 hr kinetic read.

[3] = tested on: BET family of bromodomain proteins; settings: cited from earlier work
[4] = tested on: SCN1A expression; assay: SCN1A expression by qPCR after transfection of SK-N-AS cells; assay type: cell-based, human; settings: 100 to 3.125 nM, 48 hours
Experimental: SCN1A-ASO1 shown in Table 5A was designed against the exonic region of SCN1A mRNA. SCN1A ASO1-Linker1-JQ1 was transfected to SK-N-AS cells at 100, 50, 25, 12.5, 6.25, and 3.125 nM with RNAiMax. SCN1A ASO1-JQ1:RNAiMax ratios in transfection were: 100 nM:0.3 ul, 50 nM and below:0.15 ul. Cells were harvested 48 hours after transfection and SCN1A expression changes were monitored by qPCR. TaqMan probe used in the assay for quantitation: SCN1A Hs00374696_ml (ThermoFisher), GAPDH Hs02786624_g1 (ThermoFisher).
SCN1A ASO1-Linker1-iBET762 was transfected to SK-N-AS cells at 100, 50, 25, 12.5, 6.25, and 3.125 nM with RNAiMax. SCN1A ASO1-iBET762:RNAiMax ratios in transfection are: 100 nM:0.3 ul, 50 nM and below:0.15 ul. Cells were harvested 48 hours after transfection and SCN1A expression changes were monitored by qPCR. TaqMan probe used in the assay for quantitation: SCN1A Hs00374696_m1 (ThermoFisher), GAPDH Hs02786624_g1 (ThermoFisher). […] SCN1A encodes for the alpha-1 subunit of the voltage-gated sodium channel (Na(V)1.1), and patients with SCN1A loss of function mutations suffers from Dravet syndrome, a neurological disorder.

[5] = tested on: SYNGAP1 expression; assay: SYNGAP1 expression by qPCR after transfection of HEK293T cells; assay type: cell-based, human; settings: 200 nM, 48 hours
Experimental: SYNGAP1 ASO1-JQ1 to SYNGAP1 ASO4-JQ1 were transfected to HEK293T cells at 200, and 67 nM with RNAiMax. SYNGAP1 ASO-JQ1:RNAiMax ratios in transfection are: 200 nM:0.6 ul, 67 nM:0.2 ul. Cells were harvested 48 hours after transfection and SYNGAP1 expression changes was monitored by qPCR. TaqMan probe used in the assay for quantitation: SYNGAP1: Assay ID Hs00405348_m1 (ThermoFisher), ACTB Assay ID Hs01060665_g1(ThermoFisher).

[6] = HEK293T, 400, 133, 44, 15 nM, 24 hours

## PVT1 ASO24-JQ1: PVT1 ASO24 (SEQ ID NO: 30) conjugated to JQ1 with linker 2 (CATTGAAGGATCATGGTCAT; conjugated to JQ1 via linker 2, modification pattern not given here)
[1]; [6]
  MYC expression change: increased MYC expression level similar to PVT1 ASO1-JQ1

## PVT1 ASO25-JQ1: PVT1 ASO25 (SEQ ID NO: 31) conjugated to JQ1 with linker 2 (TTATAGACTAGATTGGCCAG; conjugated to JQ1 via linker 2, modification pattern not given here)
[1]; [6]
  MYC expression change: increased MYC expression level similar to PVT1 ASO1-JQ1

## PVT1 ASO1-JQ1: PVT1 ASO1 (SEQ ID NO: 7) conjugated to JQ1 with linker 2 (eG*eT*eA*eA*eG*eT*eG*eG*eA*eA*eT*eT*e[5mC]*e[5mC]*eA*eG*eT*eT*eG; JQ1 conjugated via linker 2, further chemistry not fully specified)
[1]; HEK293T, 200 nM, 24 hours
  MYC response at top dose of titration: slight decrease of MYC response
[1]; HEK293T, 200, 100, 50, 25, 12.5, 6.25, 3.125 nM, 24 hours
  MYC expression change upon dose titration: dose dependent response
[1]; HEK293T, 400, 200, 100, 50 nM, 24 hours
  MYC expression change (RNA transcripts): increase of MYC RNA transcripts
[1]; HEK293T, 24 hours
  MYC expression change, linker comparison: both active and increased MYC expression to similar levels
[1]; HEK293T, transfected at 400, 200, 100, 50 nM, harvested after 24 hours
  increase in MYC expression: about 4 fold
[2]
  MYC protein level increase: about 2 fold

## PVT1-Scr1: JQ1 conjugate of partially scrambled PVT1 ASO1 sequence scr1 (SEQ ID NO: 63) (eT*eG*eA*eA*eG*eT*eG*eG*eA*eA*eT*eT*e[5mC]*e[5mC]*eA*eG*eT*eT*eG; JQ1 conjugate, further chemistry not fully specified)
[1]; HEK293T, 100 nM, 24 hours
  MYC expression change: less impact on the activities

## (-)JQ1
[3]
  weaker biochemical activity as compared to JQ1: > 100 x

## PVT1-Scr4: JQ1 conjugate of partially scrambled PVT1 ASO1 sequence scr4 (SEQ ID NO: 66) (eG*eT*eA*eA*eG*eT*eG*eG*eA*eA*eT*eT*e[5mC]*e[5mC]*eA*eT*eT*eG*eG; JQ1 conjugate, further chemistry not fully specified)
[1]; HEK293T, 100 nM, 24 hours
  MYC expression change: less impact on the activities

## SCN1A ASO1-JQ1: SCN1A ASO1 (SEQ ID NO: 46), 5′ Azide-N modified LNA mixmer, conjugated to JQ1 with linker 1 (AGTAAGACTGGGGTTGTT; 5' azide, LNA mixmer, JQ1 via linker 1, chemistry not fully specified)
[4]
  increase in SCN1A expression: about 2 fold

## PVT1-ASO1-Linker1-JQ1: PVT1 ASO1 (SEQ ID NO: 7) conjugated to JQ1 with linker 1 (eG*eT*eA*eA*eG*eT*eG*eG*eA*eA*eT*eT*e[5mC]*e[5mC]*eA*eG*eT*eT*eG; JQ1 conjugated via linker 1, further chemistry not fully specified)
[1]; HEK293T, 24 hours
  MYC expression change, linker comparison: both active and increased MYC expression to similar levels

## PVT1-Scr8: JQ1 conjugate of partially scrambled PVT1 ASO1 sequence scr8 (SEQ ID NO: 70) (eG*eT*eA*eA*eG*eT*eG*eG*eA*eA*eT*eT*e[5mC]*e[5mC]*eA*eT*eG*eG*eT; JQ1 conjugate, further chemistry not fully specified)
[1]; HEK293T, 100 nM, 24 hours
  MYC expression change: less impact on the activities

## SYNGAP1 ASO2-JQ1: SYNGAP1 ASO2 (SEQ ID NO: 48) conjugated to JQ1 using Linker 2 (ATCACCTCCTATAGCTCCT; 5' amino modified, conjugated to JQ1 via linker 2, further chemistry not given here)
[5]
  increase in SYNGAP1 expression: about 2 fold
